Columns and labels:
surinam grass = experiment: Test B pre/postemergence surinam grass; format: in vivo, Brachiaria decumbens
Summary of the method: (§1)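 Response is a visual 0-to-10 score relative to untreated plants, where 0 means no effect and 10 means complete control, taken twelve to sixteen days after application. Treatments went onto soil at planting and onto foliage of 1- to 4-leaf plants, using a surfactant-containing non-phytotoxic solvent.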

smallflower flatsedge = experiment: Test B flood test smallflower flatsedge; format: in vivo, Cyperus difformis
Summary of the method: (§2)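 Flood test on plants grown to the 2-leaf stage; treated plants kept in greenhouse twelve to sixteen days, then visually rated against controls on a 0 (no effect) to 10 (complete control) scale.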

corn = experiment: Test B pre/postemergence corn; format: in vivo, Zea mays
Summary of the method: as §1

rice = experiment: Test B flood test rice; format: in vivo, Oryza sativa
Summary of the method: as §2

morningglory = experiment: Test B pre/postemergence morningglory; format: in vivo, Ipomoea hederacea
Summary of the method: as §1

wild oat = experiment: Test B pre/postemergence wild oat; format: in vivo, Avena fatua
Summary of the method: as §1

wheat = experiment: Test B pre/postemergence wheat; format: in vivo, Triticum aestivum
Summary of the method: as §1

blackgrass = experiment: Test B pre/postemergence blackgrass; format: in vivo, Alopecurus myosuroides
Summary of the method: as §1

purple nutsedge = experiment: Test B pre/postemergence purple nutsedge; format: in vivo, Cyperus rotundus
Summary of the method: as §1

crabgrass = experiment: Test B pre/postemergence crabgrass; format: in vivo, Digitaria sanguinalis
Summary of the method: as §1

giant foxtail = experiment: Test B pre/postemergence giant foxtail; format: in vivo, Setaria faberii
Summary of the method: as §1

velvetleaf = experiment: Test B pre/postemergence velvetleaf; format: in vivo, Abutilon theophrasti
Summary of the method: as §1

bamyardgrass = experiment: Test B flood test barnyardgrass; format: in vivo, Echinochloa crus-galli
Summary of the method: as §2

pigweed = experiment: Test B pre/postemergence pigweed; format: in vivo, Amaranthus retroflexus
Summary of the method: as §1

duck salad = experiment: Test B flood test duck salad; format: in vivo, Heteranthera limosa
Summary of the method: as §2

cocklebur = experiment: Test B pre/postemergence cocklebur; format: in vivo, Xanthium strumarium
Summary of the method: as §1

rape = experiment: Test B pre/postemergence rape; format: in vivo, Brassica napus
Summary of the method: as §1

sugar beet = experiment: Test B pre/postemergence sugar beet; format: in vivo, Beta vulgaris
Summary of the method: as §1

soybean = experiment: Test B pre/postemergence soybean; format: in vivo, Glycine max
Summary of the method: as §1

[1] = Postemergence, Rate 62 g/ha, scale 0 to 10, 0 is no effect, 10 is complete control
[2] = Postemergence, Rate 125 g/ha, scale of 0 to 10 where 0 is no effect and 10 is complete control
[3] = Postemergence, Rate 250 g/ha, scale of 0 to 10, 0 is no effect, 10 is complete control
[4] = Postemergence, Rate 500 g/ha, scale of 0 to 10 where 0 is no effect and 10 is complete control
[5] = Preemergence, Rate 62 g/ha, scale 0 to 10 (0 no effect, 10 complete control)
[6] = Preemergence, Rate 125 g/ha, scale of 0 to 10 where 0 is no effect and 10 is complete control
[7] = Preemergence, Rate 500 g/ha, scale of 0 to 10 where 0 is no effect and 10 is complete control
[8] = Rate 62 g/ha, flood test species, Pre-emergence, visual evaluation after twelve to sixteen days
[9] = Rate 125 g/ha, under heading Pre-emergence, flood test species, visual evaluation after twelve to sixteen days
[10] = Rate 250 g/ha, Pre-emergence (flood test species), scale 0 to 10, 0 is no effect, 10 is complete control
[11] = Rate 500 g/ha, Pre-emergence section of Table B, 0 to 10 scale (0 no effect, 10 complete control)

CC(C)N(C(=O)n1oc(=O)n(CC(C)[N+](=O)[O-])c1=O)c1ccc(F)cc1F (centres unmarked) [Compound 603]
3: Plant response rating, Morningglory (morningglory; [4])
2: Morningglory plant response rating (morningglory; [3]) | Plant response rating, Velvetleaf (velvetleaf; [4]) | Soybean plant response rating (soybean; [3]) | Plant response rating, Soybean (soybean; [4])
0: Plant response rating, B. signalgrass (surinam grass; [1]) | Plant response rating, B. signalgrass (surinam grass; [2]) | B. signalgrass plant response rating (surinam grass; [3]) | Plant response rating, B. signalgrass (surinam grass; [4]) | B. signalgrass plant response rating (surinam grass; [5]) | B. signalgrass plant response rating (surinam grass; [6]) | B. signalgrass plant response rating (0 to 10 scale, 0 is no effect, 10 is complete control) (surinam grass; Preemergence, Rate 250 g/ha) | B. signalgrass plant response rating (surinam grass; [7]) | Plant response rating, S. Flatsedge (0 to 10 scale, 0 is no effect, 10 is complete control) (smallflower flatsedge; [8]) | S. Flatsedge plant response rating (0 to 10 scale, 0 is no effect, 10 is complete control) (smallflower flatsedge; [9]) | S. Flatsedge plant response rating (smallflower flatsedge; [10]) | S. Flatsedge plant response rating (smallflower flatsedge; [11]) | Plant response rating, Corn (corn; [1]) | Plant response rating, Corn (corn; [2]) | Corn plant response rating (corn; [3]) | Plant response rating, Corn (corn; [4]) | Corn plant response rating (corn; [5]) | Corn plant response rating (corn; [6]) | Corn plant response rating (0 to 10 scale) (corn; Preemergence, Rate 250 g/ha) | Plant response rating, Corn (corn; [7]) | Plant response rating, Rice (0 to 10 scale, 0 is no effect, 10 is complete control) (rice; [8]) | Rice plant response rating (0 to 10 scale, 0 is no effect, 10 is complete control) (rice; [9]) | Rice plant response rating (rice; [10]) | Rice plant response rating (rice; [11]) | Plant response rating, Morningglory (morningglory; [1]) | Plant response rating, Morningglory (morningglory; [2]) | Morningglory plant response rating (morningglory; [5]) | Morningglory plant response rating (morningglory; [6]) | Plant response rating, Morningglory (morningglory; [7]) | Plant response rating, Wild oats (wild oat; [1]) | Plant response rating, Wild oats (wild oat; [2]) | Wild oats plant response rating (wild oat; [3]) | Plant response rating, Wild oats (wild oat; [4]) | Wild oats plant response rating (wild oat; [5]) | Wild oats plant response rating (wild oat; [6]) | Plant response rating, Wild oats (wild oat; [7]) | Plant response rating, Wheat (wheat; [1]) | Plant response rating, Wheat (wheat; [2]) | Wheat plant response rating (wheat; [3]) | Plant response rating, Wheat (wheat; [4]) | Wheat plant response rating (wheat; [5]) | Wheat plant response rating (wheat; [6]) | Plant response rating, Wheat (wheat; [7]) | Plant response rating, Blackgrass (blackgrass; [1]) | Plant response rating, Blackgrass (blackgrass; [2]) | Blackgrass plant response rating (blackgrass; [3]) | Plant response rating, Blackgrass (blackgrass; [4]) | Blackgrass plant response rating (blackgrass; [5]) | Blackgrass plant response rating (blackgrass; [6]) | Blackgrass plant response rating (0 to 10 scale) (blackgrass; Preemergence, Rate 250 g/ha) | Blackgrass plant response rating (blackgrass; [7]) | Plant response rating, Nutsedge (purple nutsedge; [1]) | Plant response rating, Nutsedge (purple nutsedge; [2]) | Nutsedge plant response rating (purple nutsedge; [3]) | Plant response rating, Nutsedge (purple nutsedge; [4]) | Nutsedge plant response rating (purple nutsedge; [5]) | Nutsedge plant response rating (purple nutsedge; [6]) | Plant response rating, Nutsedge (purple nutsedge; [7]) | Plant response rating, Crabgrass (crabgrass; [1]) | Plant response rating, Crabgrass (crabgrass; [2]) | Crabgrass plant response rating (crabgrass; [3]) | Plant response rating, Crabgrass (crabgrass; [4]) | Crabgrass plant response rating (crabgrass; [5]) | Crabgrass plant response rating (crabgrass; [6]) | Plant response rating, Crabgrass (crabgrass; [7]) | Plant response rating, Giant foxtail (giant foxtail; [1]) | Plant response rating, Giant foxtail (giant foxtail; [2]) | Giant foxtail plant response rating (giant foxtail; [3]) | Plant response rating, Giant foxtail (giant foxtail; [4]) | Giant foxtail plant response rating (giant foxtail; [5]) | Giant foxtail plant response rating (giant foxtail; [6]) | Plant response rating, Giant foxtail (giant foxtail; [7]) | Plant response rating, Velvetleaf (velvetleaf; [1]) | Plant response rating, Velvetleaf (velvetleaf; [2]) | Velvetleaf plant response rating (velvetleaf; [3]) | Velvetleaf plant response rating (velvetleaf; [5]) | Velvetleaf plant response rating (velvetleaf; [6]) | Plant response rating, Velvetleaf (velvetleaf; [7]) | Plant response rating, Barnyardgrass (0 to 10 scale, 0 is no effect, 10 is complete control) (bamyardgrass; [8]) | Barnyardgrass plant response rating (0 to 10 scale, 0 is no effect, 10 is complete control) (bamyardgrass; [9]) | Barnyardgrass plant response rating (bamyardgrass; [10]) | Barnyardgrass plant response rating (bamyardgrass; [11]) | Plant response rating, Redroot pigweed (pigweed; [1]) | Plant response rating, Redroot pigweed (pigweed; [2]) | Redroot pigweed plant response rating (pigweed; [3]) | Plant response rating, Redroot pigweed (pigweed; [4]) | Redroot pigweed plant response rating (pigweed; [5]) | Redroot pigweed plant response rating (pigweed; [6]) | Plant response rating, Redroot pigweed (pigweed; [7]) | Plant response rating, Ducksalad (0 to 10 scale, 0 is no effect, 10 is complete control) (duck salad; [8]) | Ducksalad plant response rating (0 to 10 scale, 0 is no effect, 10 is complete control) (duck salad; [9]) | Ducksalad plant response rating (duck salad; [10]) | Ducksalad plant response rating (duck salad; [11]) | Plant response rating, Cocklebur (cocklebur; [1]) | Plant response rating, Cocklebur (cocklebur; [2]) | Cocklebur plant response rating (cocklebur; [3]) | Plant response rating, Cocklebur (cocklebur; [4]) | Cocklebur plant response rating (cocklebur; [5]) | Cocklebur plant response rating (cocklebur; [6]) | Cocklebur plant response rating (0 to 10 scale) (cocklebur; Preemergence, Rate 250 g/ha) | Plant response rating, Cocklebur (cocklebur; [7]) | Plant response rating, Rape (rape; [1]) | Plant response rating, Rape (rape; [2]) | Rape plant response rating (rape; [3]) | Plant response rating, Rape (rape; [4]) | Rape plant response rating (rape; [5]) | Rape plant response rating (rape; [6]) | Plant response rating, Rape (rape; [7]) | Plant response rating, Sugarbeets (sugar beet; [1]) | Plant response rating, Sugarbeets (sugar beet; [2]) | Sugarbeets plant response rating (sugar beet; [3]) | Plant response rating, Sugarbeets (sugar beet; [4]) | Sugarbeets plant response rating (sugar beet; [5]) | Sugarbeets plant response rating (sugar beet; [6]) | Plant response rating, Sugarbeets (sugar beet; [7]) | Plant response rating, Soybean (soybean; [1]) | Plant response rating, Soybean (soybean; [2]) | Soybean plant response rating (soybean; [5]) | Soybean plant response rating (soybean; [6]) | Plant response rating, Soybean (soybean; [7])

Reference: patent US6737383B1, “Herbicidal oxadiazolidines” (priority 1999, dated 2004)
